{"source": "patent US8906858B2", "about": "“Method for the prophylactic or therapeutic treatment of glucocorticoid-induced osteoporosis” (Fritz-Lipmann-Institut E. V. Leibniz-Institut Fuer …, priority 2010, dated 2014)", "key": {"[1]": {"test_system": "Mouse embryonic fibroblasts", "experiment": "Functional screening assay, automated fluorescent microscopy of ALP activity and cytokines", "type": "cell-based", "procedure": "Automated fluorescent microscopy for high content screening of factors involved in osteoblast differentiation. (A) In osteogenic differentiated (OI) wild type MEFs ALP activity is shown by a fluorescent product (ELF®, green) and nuclei are indicated by DRAQ5® staining (red).\n500 Mouse embryonic fibroblasts are seeded per 384 well (2000 cells into a 96 well) until confluency (approx. 2 days). […] 3.7% Formalin is added (50 μl).\nDifferentiation of osteoblasts treated either with agents to be tested or with RNAi will be determined by staining for alkaline phosphatase activity (ALP kit; Sigma, Inc. or ELF® Phosphatase Detection Kit, ATCC). The preserved anti-inflammatory activity is monitored by immunhistochemical staining with antibodies against IL-6 and CXCL10. The avoidance to affect IL-11 and LIF expression is additionally determined by immunohistochemistry as well.\nAfter fixation, the wells are stained with the nuclear stain DRAQ5 and a fluorescent substrate (ELF) for alkaline phosphatase activity. This allows monitoring cellular ALP activity by automatic microscopy and evaluation with the respective software (FIG. 17).\nImmunohistochemical staining towards the antibodies IL-6, CXCL10, IL-11 and/or LIF follows as a last step. Fluorescent signals of the antibodies will be monitored by automatic microscopy and evaluation with the respective software."}, "[2]": {"test_system": "MMP-13", "conditions": "monocytic cells"}, "[3]": {"test_system": "primary osteoblasts", "conditions": "10^−6 M CpdA, OI differentiation", "protocol": "(§1) FIG. 19. […] A) Cells were fixed and stained for ALP activity after 10 d and for mineralization of the matrix using Alizarin red after 20 d of culture. B) mRNA expression levels of osteoblast marker genes are shown, indicated as arbitrary units of actin expression.\n(§2) FIG. 22. Determination of alkaline phosphatase activity (ALP) and corresponding IL-11 levels with ELISA 48 hrs after induction. A) Primary osteoblasts of wild type mice were cultured for 10 days with osteogenic inducers (OI) or 0.5 ng/ml IL-11 compared to untreated cells (ctr). Cells were fixed and stained for alkaline phosphatase activity (ALP). The corresponding IL-11 levels were determined with ELISA 48 hrs after induction."}, "[4]": {"test_system": "DBA/1 mice", "conditions": "CpdA (300 ug) daily for 8 d", "protocol": "as §1, §2"}, "[5]": {"test_system": "IL-11 signaling", "conditions": "primary osteoblasts, 10^−6 M CpdA", "protocol": "(§3) FIG. 18. […] B) After 6 h of cultivation, IL-11 mRNA expression levels were measured from total RNA extracts. C) IL-11 protein was measured in the supernatant using ELISA after 36 h of culture (n=3; Beta-actin was used for standardisation). *P<0.05, **P<0.01; 1-way ANOVA followed by Dunnett's multiple comparison test. […] E) Western blot analysis is shown for STAT3 phosphorylation of bones from GR^Runx2Cre mice subjected to organ cultures, treated as in D for 36 h."}, "[6]": {"test_system": "Cxcl10 and IL-6 mRNA expression", "conditions": "primary osteoblasts, 10^−6 M CpdA, 6 h", "protocol": "as §3"}, "[7]": {"test_system": "bone tissue of mice", "experiment": "Osteoblast proliferation and apoptosis in vivo (BrdU, TUNEL)", "design": "species or system mouse", "conditions": "prednisolone for one day", "protocol": "FIG. 10. Proliferation and apoptosis in bones of prednisolone treated GR^Runx2Cre animals. (A, B). GR^flox and GR^Runx2Cre mice were treated with prednisolone for one day pulsed with BrdU for 4 hours and histological sections of long bones stained with anti-BrdU antibody (A) and with a TUNEL kit (B). BM: bone marrow; Scale bar: 20 μm.\nMice were treated with prednisolone (12.5 mg/kg/d) for one day and they got pulsed with 10 μg/g body weight BrdU 4 hours before dissection. Decalcified deparaffined femur sections were stained with the In situ Cell Death Detection Kit (Roche) for apoptosis and rat anti-BrdU (Abcam) following Peroxidase coupled anti-rat IgG for proliferation."}, "[8]": {"test_system": "Female 9 week old FVB/N mice", "experiment": "LIF administration to prednisolone treated mice, MicroCT analysis", "type": "in vivo, mouse", "protocol": "FIG. 23. LIF treatment elevates bone density of prednisolone treated mice. Female 9 week old FVB/N mice were treated with control pellets (sham), prednisolone (Pred) releasing pellets (12 mg/kg/day releasing rate) and were treated one day later with PBS and LIF i.p. injections twice a day (0.2 mg/kg/day) until 15 days. Mice were sacrificed on day 16. MicroCT Analysis was performed and representative longitudinal sections shown in (A), Bone Volume/Tissue volume determined (B) and trabecular thickness and trabecular numbers calculated (C, D). n=6, * p<0.05, ** p<0.01, *** p<0.001\nAfter 15 days the bone mineral density was determined by micro computertomography (FIG. 23).\nFemale 9 week old FVB/N mice were treated with control pellets (sham), prednisolone (Pred) releasing pellets (12 mg/kg/day releasing rate) and were treated one day later with PBS and LIF i.p. injections twice a day (0.2 mg/kg/day) until 15 days. Mice were sacrificed on day 16."}, "[9]": {"test_system": "10-week-old female mice", "procedure": "Vertebral bodies of 10-week-old female GR^Runx2cre and GR^flox mice treated with placebo (Plac) or prednisolone (Pred; 12.5 mg/kg/day) for two weeks were analyzed by (A) von Kossa staining of undecalcified sections and (B) histomorphometry of BV/TV and TbTh. (C) DPD/Cr levels in urine of mice after prednisolone treatment at indicated times. (D) Histomorphometry of osteoblast number/bone perimeter (NOb/BPm), osteocyte number/bone area (NOy/BAR) and osteoclast number/bone perimeter (NOc/BPm). (E) Fluorescent micrographs of dual calcein labeling and (F) its quantitative analysis of bone formation rate/bone surface (BFR/BS). (G) Number of CFU-OBs within the bone marrow/leg (femur and tibia) and (H) qRT-PCR-determined Col1a1 mRNA expression in long bones of mice treated with placebo or prednisolone for three days. (I) Fluorescent micrographs of dual calcein labeling and (J) its quantitative analysis of BFR/BS in tibiae of GR^LysMcre and corresponding GR^flox control mice.\n(A) Fluorescent micrographs of dual calcein labeling and (B) its quantitative analysis of BFR/BS in vertebrae of GR^dim and wild type (wt) mice treated as described in FIG. 2. (C) Vertebral bodies were analyzed by von Kossa staining of undecalcified sections. (D) Histomorphometry of BV/TV, TbTh, (E) NOb/BPm, NOy/BAR and NOc/BPm. (F) Number of CFU-OBs within the bone marrow/leg and (G) qRT-PCR-determined Col1a1 mRNA expression in long bones of mice treated with placebo or prednisolone for three days. (H) DPD/Cr levels in urine of mice after prednisolone treatment at indicated times.\nAll animal experiments were performed in accordance with accepted standards of animal welfare and with permission of the responsible authorities of Baden-Württemberg and Thüringen. […] To induce osteoporosis, prednisolone (or a placebo control) was applied for 14 days by subcutaneous implantation of slow-release pellets resulting in a calculated dose of 12.5 mg/kg/d (15 mg; 60-day release; Innovative Research of America, Inc.) in 10-week-old female mice.\nParameters of static and dynamic histomorphometry were quantified on toluidine blue-stained undecalcified proximal tibia and lumbar vertebral sections as described previously (Amling et al., 1999) using the Osteo-histomorphometry system (Osteometrics, Atlanta, Ga., USA) (Parfitt et al., 1987). Osteocytes were assessed at the cortical bone by OsteoMeasure™ software. To assess dynamic histomorphometric indices, mice were given two injections of calcein, nine and two days before dissection. Fluorochrome measurements for the determination of the bone formation rate were performed on two nonconsecutive 12-μm-thick sections for each animal. Statistical differences between the groups (n=5-6) were assessed by the Student's t-test."}, "[10]": {"test_system": "osteoblastogenesis in bone marrow / long bones of mice", "experiment": "CFU-OBs and Col1a1 mRNA in long bones after three days of prednisolone", "type": "in vivo, mouse", "conditions": "for Col1a1 expression in long bones / osteoblastogenesis, colony forming units of osteoblasts (CFU-OBs): three days of prednisolone", "source_text": "(G) Number of CFU-OBs within the bone marrow/leg (femur and tibia) and (H) qRT-PCR-determined Col1a1 mRNA expression in long bones of mice treated with placebo or prednisolone for three days.\n(F) Number of CFU-OBs within the bone marrow/leg and (G) qRT-PCR-determined Col1a1 mRNA expression in long bones of mice treated with placebo or prednisolone for three days.\nCFU-OBs per leg were obtained by counting Alizarin Red-positive colonies of 2×10^6 bone marrow cells (excluding erythrocytes) plated per 6-well after 20 days under osteogenic conditions."}, "[11]": {"test_system": "primary wild type osteoblasts", "experiment": "Soluble factors added to osteoblasts during osteogenic induction in presence or absence of Dex", "type": "cell-based, mouse", "conditions": "day 10, with Dex", "protocol": "FIG. 7. Differential gene regulation in GR^dim osteoblasts and bone organs by GCs and involvement of AP-1 in suppression of IL-11 in osteoblast differentiation. (A-E) Primary osteoblasts were grown until confluence and treated as described in FIG. 4A. qRT-PCR-determined mRNA expression levels of GILZ, Per-1, KLF15, Lif (LIF) and II11 (IL-11) after six hours. (F-H) qRT-PCR-determined mRNA expression level of IL-11 in organ cultures of GR mutant fetal hind legs (F), in dN^Runx2Cre osteoblasts (G) and c-jun^null MEFs (H) after six hours treatment. (I) Chromatin immunoprecipitation of MEFs after six hours. […] IgG precipitation served as negative control and amplification of the input as positive control. […] At day 10, ALP activity was determined and at day 20, Alizarin Red staining was performed. (K) Quantification of ALP-positive cells treated as in (J) after 10 days. (L) qRT-PCR-determined Runx2 mRNA expression level in cells treated as in (J) after 10 days.\nFIG. 13. Effects of GR regulated soluble factors on osteoblast cell numbers. […] At day 10 cell counts were determined by automatic microscopy. Data are represented as mean+/−SEM. *<0.05.\nFIG. 14. Effects of GR regulated soluble factors on osteoblast cell differentiation. Primary wild type osteoblasts were differentiated with or without Dex. At day 10 the specific ALP activity was determined and is depicted as ALP positive cells in percent in the absence or presence of NGF (A), IL-6 (B), EGF (C) and LIF (D). Data are represented as mean+/−SEM. * p<0.05; ** p<0.01.\nPrimary osteoblasts were isolated from either embryonic (E18.5) or neonatal calvaria by sequential digestions and cultivated as previously described (David et al., 2005). c-Jun-deficient cells were obtained from previously described mice (Schreiber et al., 1999). […] Differentiation of osteoblasts was determined by staining for ALP activity (ALP kit, Sigma or ELF® Phosphatase Detection Kit, ATCC) or by Alizarin Red staining (Sigma) at indicated time points. Apoptosis was detected by In situ Cell Death Detection Kit (Roche), and proliferation with fluorescent immunohistochemistry using mouse anti-Ki-67 (BD Pharmingen™) and Alexa Fluor® 594-labeled donkey anti-mouse IgG (Molecular Probes™). Quantification of the stainings and cell numbers according to DAPI labeling was performed by automated microscopy using Cellomics ArrayScan and software HCS Scan® (Thermo-Fischer). The factors EGF (Calbiochem), NGF2 (Sigma), IL-6 (ImmunoTools), IL-11 (Antigenix America, Inc.) and LIF (Chemicon) were added to the culture after differentiation at concentrations of 0.8, 4 and 20 ng/ml. qRT-PCR was performed as previously described (Tuckermann et al., 2007). Primer information can be provided upon request."}, "[12]": {"test_system": "human cells", "conditions": "cited from earlier work"}, "[13]": {"conditions": "wild type (GR^flox) mice, prednisolone for two weeks"}}, "note": "“Also recorded” adds a separate entry of the source. Read-outs that look alike come from different tables or passages of the source."}
{"molecule": "CNCC(Cl)c1ccc(OC(C)=O)cc1.Cl", "note": "(stereo not drawn) [Compound A]", "values": [{"measurement": "result in the method for identifying agents", "setting": "[1]", "result": "tested as a hit"}, {"measurement": "AP-1 dependent gene MMP-13", "setting": "[2]", "result": "repressed"}, {"measurement": "osteoblast differentiation and osteoblast markers in vitro", "setting": "[3]", "result": "does not affect"}, {"measurement": "osteoblast markers in vivo", "setting": "[4]", "result": "does not affect"}, {"measurement": "IL-11 signaling", "setting": "[5]", "result": "not IL-11 signaling"}, {"measurement": "proinflammatory gene expression", "setting": "[6]", "result": "inhibits proinflammatory gene expression"}]}
{"molecule": "C[C@]12C=CC(=O)C=C1CC[C@@H]1[C@@H]2[C@@H](O)C[C@@]2(C)[C@H]1CC[C@]2(O)C(=O)CO", "note": "[prednisolone]", "values": [{"measurement": "TUNEL and BrdU pulse labeling within bone tissue", "setting": "[7]", "result": "did not alter"}, {"measurement": "trabecular thickness", "setting": "[8]; prednisolone pellets 12 mg/kg/day, also in LIF treated animals", "result": "reduction of trabecular thickness"}, {"measurement": "bone formation rate", "setting": "[9]; GR^LysMCre and wild type mice, prednisolone for two weeks", "result": "similarly reduced"}, {"measurement": "numbers of osteocytes, osteoblasts and osteoblast surface", "setting": "[9]; GR^Runx2Cre mice", "result": "unaltered"}, {"measurement": "bone mineral density and trabecular thickness", "setting": "[9]; GR^Runx2Cre mice, prednisolone for two weeks", "result": "not affected"}, {"measurement": "bone formation, dynamic histomorphometry following dual calcein labeling", "setting": "[9]; GR^Runx2cre mice", "result": "fully protected"}, {"measurement": "bone formation", "setting": "[9]; GR^dim and wild type mice", "result": "similarly repressed"}, {"measurement": "bone mass and trabecular thickness of the vertebrae", "setting": "[9]; GR^dim and wild type mice", "result": "reduced to a comparable degree"}, {"measurement": "osteoblast and osteocyte numbers", "setting": "[9]; GR^dim and wild type mice", "result": "strong reduction"}, {"measurement": "osteoclast numbers", "setting": "[9]; GR^dim and wild type mice", "result": "not changed"}, {"measurement": "resorption (DPD/Cr)", "setting": "[9]; GR^dim and wild type mice", "result": "slightly decreased"}, {"measurement": "osteoclast numbers", "setting": "[9]; GR^flox and GR^Runx2Cre mice", "result": "not affected"}, {"measurement": "Resorption, deoxypyridinoline (DPD/Cr) levels", "setting": "[9]; GR^flox and GR^Runx2Cre mice, urine", "result": "slightly decreased"}, {"measurement": "numbers of osteocytes, osteoblasts and osteoblast surface", "setting": "[9]; GR^flox mice", "result": "decreased"}, {"measurement": "unspecific toxic effects of the prednisolone dose", "setting": "[9]; mouse, in vivo", "result": "no unspecific toxic effects"}, {"measurement": "reduction of osteocytes", "setting": "[9]; prednisolone treated mice", "result": "20-35%"}, {"measurement": "bone formation, dynamic histomorphometry following dual calcein labeling", "setting": "[9]; vertebrae of wild type mice", "result": "almost complete inhibition"}, {"measurement": "bone mineral density in vertebral bones", "setting": "[9]; [13]", "result": "reduced"}, {"measurement": "trabecular thickness", "setting": "[9]; [13]", "result": "decreased"}, {"measurement": "Col1a1 expression in long bones", "setting": "[10]; GR^Runx2Cre mice", "result": "remained unchanged"}, {"measurement": "osteoblastogenesis, colony forming units of osteoblasts (CFU-OBs)", "setting": "[10]; GR^Runx2Cre mice", "result": "not in GR^Runx2Cre mice"}, {"measurement": "Col1a1 expression", "setting": "[10]; GR^dim and wild type mice", "result": "similarly reduced in both genotypes"}, {"measurement": "Osteoblastogenesis in vitro (CFU-OBs)", "setting": "[10]; GR^dim and wild type mice", "result": "as efficiently suppressed in GR^dim as in wild type mice"}, {"measurement": "Col1a1 expression in long bones", "setting": "[10]; GR^flox mice", "result": "strongly reduced"}, {"measurement": "osteoblastogenesis, colony forming units of osteoblasts (CFU-OBs)", "setting": "[10]; GR^flox mice", "result": "strongly impaired"}]}
{"molecule": "IL-6: Interleukin 6 added to osteoblast cultures", "values": [{"measurement": "rescue of Dex-reduced osteoblast cell numbers", "setting": "[11]", "result": "neither rescued the reduced cell numbers"}]}
{"molecule": "LIF: Leukaemia inhibitory factor, secreted polyfunctional cytokine; recombinant protein", "values": [{"measurement": "trabecular number", "setting": "[8]; LIF i.p. 0.2 mg/kg/day, 15 days", "result": "strong increase"}, {"measurement": "bone mass (bone volume/tissue volume)", "setting": "[8]; sham treated and prednisolone treated animals, LIF i.p. 0.2 mg/kg/day, 15 days", "result": "increases bone mass"}, {"measurement": "rescue of Dex-impaired osteoblast differentiation (ALP positive cells)", "setting": "[11]", "result": "potently antagonized; also recorded: ameliorated the inhibition of osteoblast differentiation"}, {"measurement": "rescue of Dex-reduced osteoblast cell numbers", "setting": "[11]", "result": "not rescuing"}]}
{"molecule": "epidermal growth factor: epidermal growth factor, evokes HB-EGF signaling in osteoblasts (NSDSECPLSHDGYCLHDGVCMYIEALDKYACNCVVGYIGERCQYRDLKWWELR; not fully specified; Epidermal growth factor; UniProt P01133 971-1023, looked up)", "values": [{"measurement": "rescue of Dex-impaired osteoblast differentiation (ALP positive cells)", "setting": "[11]", "result": "did not prevent the inhibition of differentiation"}, {"measurement": "rescue of Dex-reduced osteoblast cell numbers", "setting": "[11]", "result": "counteracted the reduction in cell number"}]}
{"molecule": "human LIF: human mature LIF polypeptide of 180 amino acid residues", "values": [{"measurement": "activity on human and mouse cells", "setting": "[12]", "result": "equally active on both human and mouse cells"}]}
